In patent US10738028B2, “Spiro three-membered ring, spiro five-membered ring peptide deformylase inhibitor and use thereof in antibacteria and anti-tumor” (priority 2016, dated 2020):
Read-outs that look alike come from different tables or passages of the source.

Columns and labels:
Assay type in all cases: cell-based
[1] = system: Enterococcus faecalis (EFA); experiment: MIC, two-fold agar dilution (CLSI), clinical isolates
Outline: (§1)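 Following the American Clinical and Laboratory Standards Institute procedure, agar two-fold dilution served to determine minimum inhibitory concentrations.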

[2] = system: Enterococcus faecium (EFM); experiment: as above
Outline: as §1

[3] = system: Escherichia coli (including ESBLs, non-ESBLs); experiment: as above; details: for Anti-bacterial activity (MIC), strain ECO+ 15-1: clinical isolate ECO+ 15-1; for Anti-bacterial activity (MIC), strain ECO+ 15-2: clinical isolate ECO+ 15-2; for Anti-bacterial activity (MIC), strain ECO+ 15-3: clinical isolate ECO+ 15-3; for Anti-bacterial activity (MIC), strain ECO+ 15-4: clinical isolate ECO+ 15-4; for Anti-bacterial activity (MIC), strain ECO− 15-1: clinical isolate ECO− 15-1; for Anti-bacterial activity (MIC), strain ECO− 15-2: clinical isolate ECO− 15-2; for Anti-bacterial activity (MIC), strain ECO− 15-3: clinical isolate ECO− 15-3; for Anti-bacterial activity (MIC), strain ECO− 15-4: clinical isolate ECO− 15-4
Outline: as §1

[4] = system: Moraxella catarrhalis (BCA); experiment: as above
Outline: as §1

[5] = system: Streptococcus pneoumoniae (SPN); experiment: as above
Outline: as §1

[6] = system: methicillin-resistant Staphylococcus aureus (MRSA); experiment: as above; details: for Anti-bacterial activity (MIC), strain MRSA 15-1: clinical isolate MRSA 15-1; for Anti-bacterial activity (MIC), strain MRSA 15-2: clinical isolate MRSA 15-2; for Anti-bacterial activity (MIC), strain MRSA 15-3: clinical isolate MRSA 15-3; for Anti-bacterial activity (MIC), strain MRSA 15-4: clinical isolate MRSA 15-4
Outline: as §1

[7] = system: methicillin-resistant Staphylococcus epidermidis (MRSE); experiment: as above; details: for Anti-bacterial activity (MIC), strain MRSE 15-1: clinical isolate MRSE 15-1; for Anti-bacterial activity (MIC), strain MRSE 15-2: clinical isolate MRSE 15-2; for Anti-bacterial activity (MIC), strain MRSE 15-3: clinical isolate MRSE 15-3; for Anti-bacterial activity (MIC), strain MRSE 15-7: clinical isolate MRSE 15-7
Outline: as §1

[8] = system: methicillin-sensitive Staphylococcus aureus (MSSA); experiment: as above; details: for Anti-bacterial activity (MIC), strain MSSA 15-3: clinical isolate MSSA 15-3; for Anti-bacterial activity (MIC), strain MSSA 15-4: clinical isolate MSSA 15-4; for Anti-bacterial activity (MIC), strain MSSA 15-5: clinical isolate MSSA 15-5; for Anti-bacterial activity (MIC), strain MSSA 15-6: clinical isolate MSSA 15-6
Outline: as §1

[9] = system: methicillin-sensitive Staphylococcus epidermidis (MSSE); experiment: as above; details: for Anti-bacterial activity (MIC), strain MSSE 15-3: clinical isolate MSSE 15-3; for Anti-bacterial activity (MIC), strain MSSE 15-4: clinical isolate MSSE 15-4; for Anti-bacterial activity (MIC), strain MSSE 15-5: clinical isolate MSSE 15-5; for Anti-bacterial activity (MIC), strain MSSE 15-6: clinical isolate MSSE 15-6
Outline: as §1

[10] = system: HCT-116 colorectal cancer cell line; experiment: CCK-8 proliferation inhibition; details: Homo sapiens, 72 hours, CCK-8; for inhibition at 30 µM: HCT-116, 72 h, concentration of 30 μM
Outline: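 Proliferation over 72 hours of compound treatment was measured with CCK-8 against a 1‰ DMSO control.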

[11] = system: A549 lung cancer cell line; experiment: CCK-8 proliferation inhibition; details: Homo sapiens; for inhibition at 30 µM: A549, 72 h, concentration of 30 μM
Outline: (§2)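 Plating at 2000 cells/well, then incubation overnight at 37° C. Next, a range of compound concentrations for 72 hours (control 1‰ DMSO). Finally, medium decanted and CCK-8 diluted 1:10 added.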

[12] = system: BEL-7402 liver cancer cell line; experiment: CCK-8 proliferation inhibition; details: for inhibition at 30 µM: Bel-7402, 72 h; for inhibition at 30 µM / Inhibition of proliferation, Liver cancer BEL-7402: concentration of 30 μM; for Inhibition of proliferation, Liver cancer BEL-7402: 72 hours, 30 µM
Outline: as §2

[13] = system: MGC-803 gastric cancer cell line; experiment: CCK-8 proliferation inhibition; details: Homo sapiens; for inhibition at 30 µM: MGC-803, 72 h, concentration of 30 μM
Outline: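 Using media specific to each line (1640 for MGC-803 and Jurkat, F12 for PC3, DMEM high glucose for MCF-7, each with 10% newborn bovine serum), cells at 2000/well were treated for 72 h with serially formulated compounds, then assessed with CCK-8 diluted 1:10.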

[14] = Table 5, read-out: Inhibition of proliferation, Colorectal cancer HCT116
[15] = read-out: HCT116 inhibition rate/%

O=C(C[C@@H](CC1CCCC1)C(=O)N1CC2(CC2)C[C@H]1C(=O)Nc1ncccc1F)NO [Example 67]
16 µg/mL: Anti-bacterial activity (MIC), strain ECO+ 15-1 [3] | Anti-bacterial activity (MIC), strain ECO+ 15-2 [3]
> 32 µg/mL: Anti-bacterial activity (MIC) ([2]; strain EFM 15-2) | Anti-bacterial activity (MIC) ([2]; strain EFM 15-3)
39%: inhibition at 30 µM [13]
57%: Inhibition of proliferation, Liver cancer BEL-7402 [12]
36%: inhibition at 30 µM [11]
8 µg/mL: Anti-bacterial activity (MIC) ([1]; strain EFA 15-9)
≥ 30%: inhibition at 30 µM [10, 14]
> 50%: inhibition at 30 µM ([12]; Homo sapiens)
0.125 µg/mL: Anti-bacterial activity (MIC), strain MSSA 15-4 [8] | Anti-bacterial activity (MIC), strain MSSA 15-5 [8] | Anti-bacterial activity (MIC), strain MSSE 15-6 [9]
2 µg/mL: Anti-bacterial activity (MIC) ([2]; strain EFM 15-4) | Anti-bacterial activity (MIC) ([4]; strain BCA 14-1) | Anti-bacterial activity (MIC) ([4]; strain BCA 14-4) | Anti-bacterial activity (MIC) ([4]; strain BCA 14-5) | Anti-bacterial activity (MIC) ([4]; strain BCA 14-6) | Anti-bacterial activity (MIC) ([4]; strain BCA 14-7) | Anti-bacterial activity (MIC) ([4]; strain BCA 14-8)
44%: inhibition at 30 µM [10, 15]
0.5 µg/mL: Anti-bacterial activity (MIC) ([4]; strain BCA 14-10) | Anti-bacterial activity (MIC), strain MRSA 15-2 [6] | Anti-bacterial activity (MIC), strain MRSA 15-4 [6] | Anti-bacterial activity (MIC), strain MRSE 15-1 [7] | Anti-bacterial activity (MIC), strain MRSE 15-2 [7] | Anti-bacterial activity (MIC), strain MRSE 15-3 [7] | Anti-bacterial activity (MIC), strain MRSE 15-7 [7] | Anti-bacterial activity (MIC), strain MSSA 15-3 [8] | Anti-bacterial activity (MIC), strain MSSE 15-4 [9] | Anti-bacterial activity (MIC), strain MSSE 15-5 [9]
0.25 µg/mL: Anti-bacterial activity (MIC) ([2]; strain EFM 15-5) | Anti-bacterial activity (MIC) ([2]; strain EFM 15-6) | Anti-bacterial activity (MIC) ([5]; strain SPN 16-2) | Anti-bacterial activity (MIC) ([5]; strain SPN 16-4) | Anti-bacterial activity (MIC), strain MRSA 15-1 [6] | Anti-bacterial activity (MIC), strain MRSA 15-3 [6] | Anti-bacterial activity (MIC), strain MSSE 15-3 [9]
32 µg/mL: Anti-bacterial activity (MIC) ([1]; strain EFA 15-1) | Anti-bacterial activity (MIC) ([1]; strain EFA 15-2) | Anti-bacterial activity (MIC) ([1]; strain EFA 15-3) | Anti-bacterial activity (MIC) ([1]; strain EFA 15-4) | Anti-bacterial activity (MIC) ([1]; strain EFA 15-5) | Anti-bacterial activity (MIC) ([1]; strain EFA 15-6) | Anti-bacterial activity (MIC) ([2]; strain EFM 15-1) | Anti-bacterial activity (MIC), strain ECO+ 15-3 [3] | Anti-bacterial activity (MIC), strain ECO+ 15-4 [3] | Anti-bacterial activity (MIC), strain ECO− 15-1 [3] | Anti-bacterial activity (MIC), strain ECO− 15-2 [3] | Anti-bacterial activity (MIC), strain ECO− 15-3 [3] | Anti-bacterial activity (MIC), strain ECO− 15-4 [3] | Anti-bacterial activity (MIC), strain MSSA 15-6 [8]

CCCC[C@H](CC(=O)NO)C(=O)N1CC2(CC2)C[C@H]1C(=O)Nc1cc(C(C)(C)C)on1 [Example 55]
59%: Inhibition of proliferation, Liver cancer BEL-7402 [12]
1 µg/mL: Anti-bacterial activity (MIC), strain ECO+ 15-4 [3] | Anti-bacterial activity (MIC), strain BCA 14-5 ([4]; clinical isolate BCA 14-5) | Anti-bacterial activity (MIC), strain SPN 16-2 ([5]; clinical isolate SPN 16-2) | Anti-bacterial activity (MIC), strain SPN 16-4 ([5]; clinical isolate SPN 16-4) | Anti-bacterial activity (MIC), strain MRSE 15-1 [7] | Anti-bacterial activity (MIC), strain MRSE 15-2 [7] | Anti-bacterial activity (MIC), strain MRSE 15-3 [7] | Anti-bacterial activity (MIC), strain MRSE 15-7 [7] | Anti-bacterial activity (MIC), strain MSSA 15-4 [8] | Anti-bacterial activity (MIC), strain MSSA 15-5 [8] | Anti-bacterial activity (MIC), strain MSSE 15-3 [9] | Anti-bacterial activity (MIC), strain MSSE 15-4 [9] | Anti-bacterial activity (MIC), strain MSSE 15-5 [9] | Anti-bacterial activity (MIC), strain MSSE 15-6 [9]
> 32 µg/mL: Anti-bacterial activity (MIC), strain EFA 15-1 ([1]; clinical isolate EFA 15-1) | Anti-bacterial activity (MIC), strain EFA 15-2 ([1]; clinical isolate EFA 15-2) | Anti-bacterial activity (MIC), strain EFA 15-3 ([1]; clinical isolate EFA 15-3) | Anti-bacterial activity (MIC), strain EFA 15-4 ([1]; clinical isolate EFA 15-4) | Anti-bacterial activity (MIC), strain EFA 15-5 ([1]; clinical isolate EFA 15-5) | Anti-bacterial activity (MIC), strain EFA 15-6 ([1]; clinical isolate EFA 15-6) | Anti-bacterial activity (MIC), strain EFM 15-1 ([2]; clinical isolate EFM 15-1) | Anti-bacterial activity (MIC), strain EFM 15-2 ([2]; clinical isolate EFM 15-2) | Anti-bacterial activity (MIC), strain EFM 15-3 ([2]; clinical isolate EFM 15-3) | Anti-bacterial activity (MIC), strain EFM 15-4 ([2]; clinical isolate EFM 15-4) | Anti-bacterial activity (MIC), strain ECO+ 15-2 [3] | Anti-bacterial activity (MIC), strain ECO+ 15-3 [3] | Anti-bacterial activity (MIC), strain ECO− 15-1 [3] | Anti-bacterial activity (MIC), strain ECO− 15-2 [3] | Anti-bacterial activity (MIC), strain ECO− 15-3 [3] | Anti-bacterial activity (MIC), strain ECO− 15-4 [3] | Anti-bacterial activity (MIC), strain MSSA 15-6 [8]
2 µg/mL: Anti-bacterial activity (MIC), strain EFM 15-6 ([2]; clinical isolate EFM 15-6) | Anti-bacterial activity (MIC), strain BCA 14-6 ([4]; clinical isolate BCA 14-6)
≥ 30%: inhibition at 30 µM [10, 14]
15.2 µM: IC50 ([10]; HCT-116)
8 µg/mL: Anti-bacterial activity (MIC), strain EFA 15-9 ([1]; clinical isolate EFA 15-9)
0.5 µg/mL: Anti-bacterial activity (MIC), strain EFM 15-5 ([2]; clinical isolate EFM 15-5) | Anti-bacterial activity (MIC), strain MRSA 15-2 [6] | Anti-bacterial activity (MIC), strain MRSA 15-3 [6] | Anti-bacterial activity (MIC), strain MRSA 15-4 [6] | Anti-bacterial activity (MIC), strain MSSA 15-3 [8]
> 50%: inhibition at 30 µM ([12]; Homo sapiens)
29.5 µM: IC50 ([13]; MGC-803, 72 hours)
4 µg/mL: Anti-bacterial activity (MIC), strain BCA 14-1 ([4]; clinical isolate BCA 14-1) | Anti-bacterial activity (MIC), strain BCA 14-4 ([4]; clinical isolate BCA 14-4) | Anti-bacterial activity (MIC), strain BCA 14-7 ([4]; clinical isolate BCA 14-7) | Anti-bacterial activity (MIC), strain BCA 14-8 ([4]; clinical isolate BCA 14-8) | Anti-bacterial activity (MIC), strain BCA 14-10 ([4]; clinical isolate BCA 14-10)
30%: inhibition at 30 µM [10, 15]
12.1 µM: IC50 ([11]; A549, 72 hours)
49%: inhibition at 30 µM [11]
32 µg/mL: Anti-bacterial activity (MIC), strain ECO+ 15-1 [3]
33%: inhibition at 30 µM [13]
0.25 µg/mL: Anti-bacterial activity (MIC), strain MRSA 15-1 [6]
25.9 µM: IC50 ([12]; Homo sapiens, Bel-7402, 72 hours)
